Assay results as given in ChEMBL document CHEMBL4052617, “Antibacterial activity of N-methylbenzofuro[3,2-b]quinoline and N-methylbenzoindolo[3,2-b]-quinoline derivatives and study of their mode of action” (2017).
In brackets after ≈: the same amount, converted by molar mass.

Columns and labels:
Format in all cases: functional
Pseudomonas aeruginosa = assay: Antibacterial activity against multidrug-resistant Pseudomonas aeruginosa ATCC BAA2108 after 18 hrs by Mueller-Hinton broth microdilution method; settings: ATCC BAA2108, 18 h
Escherichia coli [1] = assay: Antibacterial activity against Escherichia coli ATCC […] expressing NDM-1 beta-lactamase after 18 hrs by Mueller-Hinton broth microdilution method
Enterococcus faecium [2] = assay: Antibacterial activity against antibiotic-susceptile Enterococcus faecium ATCC 49624 after 18 hrs by brain heart infusion broth microdilution method; settings: ATCC 49624, 18 h
Staphylococcus aureus [3] = assay: Antibacterial activity against methicillin-resistant Staphylococcus aureus ATCC BAA41 after 18 hrs by cation adjusted Mueller-Hinton broth microdilution method; settings: ATCC BAA41, 18 h
Escherichia coli [4] = assay: Antibacterial activity against Escherichia coli ATCC 25922 after 18 hrs by Mueller-Hinton broth microdilution method; settings: ATCC 25922, 18 h
Klebsiella pneumoniae = assay: Antibacterial activity against Klebsiella pneumoniae ATCC BAA2470 expressing NDM-1 beta-lactamase after 18 hrs by Mueller-Hinton broth microdilution method; settings: ATCC BAA2470, 18 h
Enterococcus faecium [5] = assay: Antibacterial activity against vancomycin-resistant Enterococcus faecium ATCC 700221 after 18 hrs by brain heart infusion broth microdilution method; settings: ATCC 700221, 18 h
Bacillus subtilis = assay: Antibacterial activity against Bacillus subtilis 168 after 18 hrs by Mueller-Hinton broth microdilution method; settings: subsp. subtilis str. 168, 18 h
Staphylococcus aureus [6] = assay: Antibacterial activity against Staphylococcus aureus ATCC 29213 after 18 hrs by cation adjusted Mueller-Hinton broth microdilution method; settings: ATCC 29213, 18 h

Row | Compound | MIC (Pseudomonas aeruginosa) [µg/mL] | MIC (Escherichia coli [1]) [µg/mL] | MIC (Enterococcus faecium [2]) [µg/mL] | MIC (Staphylococcus aureus [3]) [µg/mL] | MIC (Escherichia coli [4]) [µg/mL] | MIC (Klebsiella pneumoniae) [µg/mL] | MIC (Enterococcus faecium [5]) [µg/mL] | MIC (Bacillus subtilis) [µg/mL] | MIC (Staphylococcus aureus [6]) [µg/mL]
1 | CCOc1ccc(Nc2c3ccccc3[n+](C)c3c2[nH]c2ccccc23)cc1.[I-] | 48 | 6 | 4 | 2 | 6 | 48 | 4 | 2 | 2
2 | CCc1ccc(Nc2c3ccccc3[n+](C)c3c2oc2ccccc23)cc1.[I-] | > 64 | 12 | 8 | 6 | 12 | > 64 | 8 | 6 | 6
3 | COc1cccc(OC)c1C(=O)N[C@@H]1C(=O)N2[C@@H]1SC(C)(C)[C@@H]2C(=O)O [METHICILLIN] | > 192 | > 192 |  | > 192 | 4 (≈ 10.5 µM) | > 192 |  | 0.5 (≈ 1.31 µM) | 1 (≈ 2.63 µM)
4 | C[n+]1c2ccccc2c(Nc2ccc(OC(F)(F)F)cc2)c2[nH]c3ccccc3c21.[I-] | 48 | 6 | 4 | 2 | 6 | 48 | 4 | 2 | 2
5 | C[n+]1c2ccccc2c(Nc2ccc(Cl)cc2)c2[nH]c3ccccc3c21.[I-] | 64 | 8 | 6 | 4 | 8 | 64 | 6 | 4 | 4
6 | Cc1ccc(Nc2c3ccccc3[n+](C)c3c2oc2ccccc23)cc1.[I-] | > 64 | 12 | 8 | 6 | 12 | > 64 | 8 | 6 | 6
7 | Cc1ccccc1Nc1c2ccccc2[n+](C)c2c1oc1ccccc12.[I-] | > 64 | 16 | 12 | 8 | 16 | > 64 | 12 | 8 | 8
8 | Cc1ccc(Nc2c3ccccc3[n+](C)c3c2oc2ccccc23)cc1C.[I-] | > 64 | 12 | 8 | 6 | 12 | > 64 | 8 | 6 | 6
9 | CN[C@H](CC(C)C)C(=O)N[C@H]1C(=O)N[C@@H](CC(N)=O)C(=O)N[C@H]2C(=O)N[C@H]3C(=O)N[C@H](C(=O)N[C@H](C(=O)O)c4cc(O)cc(O)c4-c4cc3ccc4O)[C@H](O)c3ccc(c(Cl)c3)Oc3cc2cc(c3O[C@@H]2O[C@H](CO)[C@@H](O)[C@H](O)[C@H]2O[C@H]2C[C@](C)(N)[C@H](O)[C@H](C)O2)Oc2ccc(cc2Cl)[C@H]1O [VANCOMYCIN] | > 64 | 6 (≈ 4.14 µM) |  |  | 2 (≈ 1.38 µM) | > 64 | > 64 | 1 (≈ 0.69 µM) | 
10 | COc1cccc(Nc2c3ccccc3[n+](C)c3c2oc2ccccc23)c1.[I-] | > 64 | 12 | 8 | 6 | 12 | > 64 | 8 | 6 | 6
11 | Cc1cc(F)ccc1Nc1c2ccccc2[n+](C)c2c1oc1ccccc12.[I-] | > 64 | 12 | 8 | 6 | 12 | > 64 | 8 | 6 | 6
12 | COc1ccccc1Nc1c2ccccc2[n+](C)c2c1[nH]c1ccccc12.[I-] | 64 | 8 | 8 | 4 | 8 | 64 | 8 | 4 | 4
13 | C[n+]1c2ccccc2c(Nc2ccccc2)c2oc3ccccc3c21.[I-] | > 64 | 16 | 12 | 8 | 16 | > 64 | 12 | 8 | 8
